Read-outs that look alike come from different tables or passages of the source. Marks after values point to notes of the source that are not given here.
What was measured:
HIV-1 = test system: HIV-1
Description: HIV Infectivity Assay. Inhibitory activity of IQN17 and derivatives was determined in an HIV luciferase assay (Chen et al., 1994). Specifically, virus was made by cotransfecting 293T cells with an HIV-1 genome containing a frame-shift mutation in env and luciferase replacing the nef gene (NL43LucR-E-) along with pCMVHXB2, an expression vector with the HXB2 gp160 gene. The resultant virus is only viable for one round of infection since its genome lacks the envelope gene. The cellular debris was removed by low-speed centrifugation. The remaining viral supernatant was used to infect HOS-CD4/Fusion cells (N. Landau, National Institutes of Health AIDS Reagent Program) in the presence of the potentially inhibitory peptides. Two days post infection, the cells were lysed and luciferase activity was monitored on a Wallac AutoLumat LB953 luminometer (Gaithersburg, Md.). IC50s (the peptide concentration at which half of the viral infection is inhibited) were calculated by fitting the data to a Langmuir equation [y=k/(1+[peptide]/IC50)], where y=luciferase activity and k is a scaling constant.

[1] = Thermal denaturation followed by CD at 222 nm; format: physicochemical
Description: (§1) Circular Dichroism. All CD measurements were performed on an Aviv 62 DS cirucular dichroism spectrometer. Standard scans were performed on 10 μM solutions of peptide in PBS (50 mM sodium phosphate, 150 mM sodium chloride [pH 7.4]) from 200 to 260 nm in a 1 cm pathlength cuvette with a 5 second averaging time. The mean residue ellipticity (θ) was calculated by dividing the raw signal by peptide concentration (M), pathlength (mm) and number of amino acids. Percent helicity was calculated according to Chen et al. (Biochemistry, 13, 1974, p3350). Thermal denaturation scans of 10 μM peptide solutions in PBS were recorded at 222 nm. The peptide was heated at two degree intervals starting at 4° C., with an equilibration time of 1.5 minutes and an averaging time of 60 seconds.

[2] = Circular dichroism (helicity); format: physicochemical; settings: for θ222 nm: 20 μM solution of peptide in PBS (legend of Table 1); for helicity: at 20 μM; for CD minimum at 222 nm: 10 μM
Description: as §1, with “Standard scans were performed on 10 μM solutions of peptide in PBS (50 mM sodium phosphate, 150 mM sodium chloride [pH 7.4]) from 200 to 260 nm in a 1 cm pathlength cuvette with a 5 second averaging time.” left out

[3] = test system: syncytia formation between HELA cells expressing CD4 and coreceptor and CHO cells expressing gp160; test: Cell/cell fusion (syncytia) assay; format: cell-based, HIV; settings: HELA CD4/coreceptor + CHO gp160/Tat, 8 to 24 hours; read-out: IC50 of inhibition of syncytia formation
Description: Assays were carried out to assess the ability of IQN17 to interact with the C-region of gp41 and inhibit function of the fusion protein. This inhibition of membrane fusion by IQN17 and IQN23 and GCN4-pIQI was assessed using a cell based assay. Proteins IQN17, IQN23 and GCN4-pIQI are serially diluted in modified DMEM media with 5% FCS and aliquoted into slide chambers. HELA cells (4×10^4) expressing CD4 and coreceptor and containing a βgalactosidase gene under the control of the Tat promoter are added. CHO cells (2×10^4) expressing gp160 (precursor protein to gp120/gp41) and Tat are also added. The 400 μl miniculture is incubated at 37° for 8 to 24 hours; fused cells (syncytia) will transcribe and translate β-galactosidase. The cells are fixed in gluteraldehyde and exposed to X-gal/Fe solution for one hour. Syncytia that contain P-galactosidase turn blue-green.

[4] = Sedimentation equilibrium (analytical ultracentrifugation); format: physicochemical
Description: Sedimentation Equilibrium. All measurements were recorded on a Beckman XL-A analytical ultracentrifuge equipped with an An-60 Ti rotor. Lyophilized peptide was resuspended in water, and the peptide concentration was determined (Edelhoch, 1967). The solution was diluted to 100–200 μM and then dialized overnight against PBS. Following dialysis, the concentration was redetermined and the appropriate dilutions were made, using the dialysis buffer. The samples were centrifuged at speeds ranging from 19,000 to 25,000 RPM.

[5] = test system: HIV, modified to contain a luciferase reporter gene; format: cell-based; settings: HOS cells expressing CD4 and coreceptor, 6 hours with virus, 48 hours more; read-out: IC50 of inhibition of luciferase activity
Description: HIV, modified to contain a luciferase reporter gene, is mixed with HOS cells expressing CD4 and coreceptor in the presence of diluted protein for 6 hours at 37° C. […] The virus solution is replaced, and the HOS culture is incubated 48 hours more in fresh media. Luciferase activity is measured in a luminometer.

[6] = Thermal denaturation followed by CD at 222 nm; format: physicochemical; settings: in 2 M GuHCl
[7] = Solubility of the peptide (observation)
[8] = read-out: IC50 (concentration at which half of viral infectivity is inhibited), Table 1
[9] = midpoint of thermal denaturation, 10 μM peptide in PBS
[10] = read-out: IC50 for viral infectivity
[11] = 20 μM peptide in PBS, 3.0 = discrete trimer

Work on EIARIKKLLQLTVWGIKQLQARIL [IQ8N17] yielded an IC50 (HIV-1; [8]) of roughly 10000 nM.

In the case of “Ac-YGGIKKKEIEAIKKEQEAIKKKIEAIEKEIVQARQLLSGIVQQQNNLLRAIEAQQH-NH2 [IZN26]”, the “Melting Temperature” value [1, 9] is reported as roughly 82 °C.

With “Ac-RMKQIEDKIEEIESKQKKIENEIARIKKLLQLTVWGIKQLQARIL-NH2 [IQN17]” the Melting Temperature ([1]; at 10 μM) was “above 100 °C”, the Melting Temperature ([1]; concentration not given) was “above 100 °C” and the “Melting Temperature” value [1, 9] was greater than 100 °C. For the same substance, the melting point was greater than 100 °C, the IC50 (HIV-1; [8]) was roughly 180 nM and the IC50 (HIV-1; [10]) was roughly 180 nM. The θ222 nm [2] was ~−36,000 deg cm^2 dmol^−1, the helicity [2] was “fully helical” and the IC50 [3] was 20 to 80 nM. The Mobs/Mcalc [4, 11] was 3.15, the oligomeric state ([4]; at 20 μM) was “discretely trimeric” and the IC50 [5] was roughly 250 nM.

In the case of “KQKKIENEIARIKKLLQLTVWGIKWLWARIL [IQ15N17]”, the “thermal stability lower than that of IQ22N17” value [1] is reported as “about 10 degrees”, the “Melting Temperature” value [1, 9] is reported as roughly 64 °C and the IC50 (HIV-1; [8]) is reported as roughly 10000 nM. For the same substance, the “CD minimum at 222 nm” value [2] was “approximately −27,000 deg cm^2 dmol^−1” and the θ222 nm [2] was ~−27,000 deg cm^2 dmol^−1.

With “Ac-RMKQIEDKIEEIESKQKKIENEIARIKKLIEAQQHLLQLTVWGIKQLQARIL-NH2 [IQN23]” the “gain in inhibitory activity relative to IQN17” value (HIV-1; gp41 residues increased from 17) was roughly 6 fold, the IC50 (HIV-1; [8]) was roughly 30 nM and the IC50 (HIV-1; [10]) was roughly 30 nM. The Mobs/Mcalc [4, 11] was 3.29, the Mobs/Mcalc ([4]; at 20 μM) was 3.3 and the IC50 [5] was roughly 80 nM.

In the case of “Ac-IKKEIEAIKKEQEAIKKKIEAIEKLLQLTVWGIKQLQARIL-NH2 [IZN17]”, the melting point is reported as greater than 100 °C, the IC50 (HIV-1; [8]) is reported as 5.6 nM and the θ222 nm [2] is reported as ~−31,000 deg cm^2 dmol^−1. The helicity [2] was “helical”, the “thermal denaturation temperature compared with IQN17” value [6] was “ten degrees higher” and the oligomeric state ([4]; at 20 μM) was “discretely trimeric”.

With “Ac-KIKKIENEIARIKKLLQLTVWGIKQLQARIL-NH2 [II15N17]” the “Melting Temperature” value [1, 9] was roughly 76 °C, the melting point was ~ 76 °C and the IC50 (HIV-1; [8]) was roughly 3000 nM. For the same substance, the IC50 (HIV-1; [10]) was roughly 3000 nM, the “CD minimum at 222 nm” value [2] was ~−33,000 deg cm^2 dmol^−1 and the θ222 nm [2] was ~−33,000 deg cm^2 dmol^−1. For the same substance, the Mobs/Mcalc [4, 11] was 2.64.

With “Ac-RMKQIEDKIEEIESKQKKIENEIARIKKLLQLTVWDIKQLQARIL-NH2 [IQN17(G572D), reference compound]” the IC50 (HIV-1; [8]) was roughly 20000 nM, the IC50 (HIV-1; [10]) was roughly 20000 nM and the θ222 nm [2] was ~−39,000 deg cm^2 dmol^−1.

With “Ac-LLQLTVWGIKQLQARIL-NH2 [N17, reference compound]” the IC50 (HIV-1; [8]) was roughly 10000 nM, the IC50 (HIV-1; [10]) was roughly 10000 nM and the solubility [7] was “difficult to get into solution—it precipitates”.

For “Ac-KIEEIESKIKKIENEIARIKKLLQLTVWGIKQLQARIL-NH2 [II22N17]”, the Melting Temperature ([1]; at 10 μM) was greater than 100 °C, the “Melting Temperature” value [1, 9] was greater than 100 °C and the melting point was greater than 100 °C. For the same substance, the IC50 (HIV-1; [8]) was roughly 170 nM, the IC50 (HIV-1; [10]) was roughly 170 nM and the “CD minimum at 222 nm” value [2] was ~−41,000 deg cm^2 dmol^−1. The θ222 nm [2] was ~−41,000 deg cm^2 dmol^−1 and the Mobs/Mcalc [4, 11] was 3.02.

With “Ac-KIEEIESKQKKIENEIARIKKLLQLTVWGIKQLQARIL-NH2 [IQ22N17]” the Melting Temperature ([1]; at 10 μM) was “below 80 °C”, the “Melting Temperature” value [1, 9] was roughly 76 °C and the melting point was ~ 76 °C. The IC50 (HIV-1; [8]) was roughly 1000 nM, the IC50 (HIV-1; [10]) was roughly 1000 nM and the “CD minimum at 222 nm” value [2] was “approximately −36,000 deg cm^2 dmol^−1”. The θ222 nm [2] was ~−36,000 deg cm^2 dmol^−1 and the Mobs/Mcalc ([4]; determined at 50 μM) was 2.73*.
